Test systems include KM12 colon; UO-31 renal; OVCAR-4 ovarian; SK-MEL-2 melanoma; SK-OV-3 ovarian; A549 NSCLC; NCI-H23 lung; IGROV1 ovarian; A498 renal; RXF 393 renal.
What all share (experiment): NCI tumour cell line growth inhibition, 48 h

Our source for the TGI and GI50 values is PubChem BioAssay (NCI).

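Five concentrations, 48 hours, 96-well plates. The concentration for 50% growth inhibition is given as GI50. TGI marks complete inhibition of growth.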 Bounds are passed on as bounds.

`CCc1c(-c2coc(CC/C(C)=C/c3ccccc3)n2)oc(OC)c(C)c1=O`: the TGI with KM12 colon was over 100 µM; in the assay on UO-31 renal it was over 53.1 µM; with OVCAR-4 ovarian, over 55.5 µM; with SK-MEL-2 melanoma, over 100 µM; in the assay with SK-OV-3 ovarian, over 100 µM; with A549 NSCLC, over 100 µM. Also, the TGI in the assay with NCI-H23 lung is over 95.4 µM; in the assay on IGROV1 ovarian it was over 100 µM; with A498 renal, over 100 µM.
As for `CC(=O)C1C(=O)C(=O)N(c2ccc([N+](=O)[O-])cc2Cl)C1=O` (stereo not given), the TGI with RXF 393 renal, in the assay with KM12 colon, in the assay on UO-31 renal, in the assay with OVCAR-4 ovarian, with SK-MEL-2 melanoma and in the assay with SK-OV-3 ovarian was over 100 µM throughout. For the same compound, the TGI in the assay on A549 NSCLC, in the assay on NCI-H23 lung and with IGROV1 ovarian was over 100 µM in each case.
For the compound `CC(=O)Oc1cc(OC(C)=O)c2cc3c(cc2c1OC(C)=O)C(=O)C1(CCCC1)C3=O`, the TGI in the assay on RXF 393 renal is 31.3 µM; with UO-31 renal, 29.8 µM; in the assay on OVCAR-4 ovarian, 33 µM; with SK-OV-3 ovarian, 31.4 µM; in the assay on A549 NSCLC, 40.4 µM; in the assay on NCI-H23 lung, 34.1 µM. Also, the TGI in the assay with IGROV1 ovarian came to 32.4 µM.
On to `O=C(Cc1nc2ccccc2s1)C(=O)Nc1ccc(Cl)cc1Cl`, for which the TGI in the assay with KM12 colon, with UO-31 renal, with OVCAR-4 ovarian, in the assay on SK-MEL-2 melanoma, in the assay with SK-OV-3 ovarian and in the assay on A549 NSCLC was over 100 µM in each case. For the same compound, the TGI in the assay with NCI-H23 lung and in the assay on IGROV1 ovarian was over 100 µM each time.
Turning to `CCN1CCC(O)(c2ccc(Cl)c(Cl)c2)C(C(=O)c2ccc(Cl)c(Cl)c2)C1` (stereo not given), the TGI with UO-31 renal stood at 31.4 µM; in the assay with OVCAR-4 ovarian it was 32.6 µM; in the assay with SK-MEL-2 melanoma, 31.9 µM; in the assay with SK-OV-3 ovarian, 32.8 µM; in the assay with A549 NSCLC it was 40.7 µM; in the assay with NCI-H23 lung it was 36.3 µM. The TGI in the assay with IGROV1 ovarian amounted to 41.3 µM; in the assay on A498 renal, 40.2 µM.
As to `CCCCCC/C=C\CCCCCCCCCc1c(O)c(OC)cc(O)c1CN(C)C`, the TGI in the assay with KM12 colon was 11.7 µM; in the assay on UO-31 renal, 15.5 µM; in the assay on OVCAR-4 ovarian it was 3.38 µM; in the assay on SK-MEL-2 melanoma it was 40.1 µM; in the assay on SK-OV-3 ovarian, 28.1 µM; in the assay with A549 NSCLC, 17.1 µM. Further, the TGI with NCI-H23 lung was found to be 23.1 µM; in the assay on IGROV1 ovarian, 11 µM; with A498 renal it was 33.4 µM.
With `C=C(CN(CCN1CCOCC1)CC(=C)c1ccc(C(=O)Nc2ccccc2N)cc1)c1ccc(C(=O)Nc2ccccc2N)cc1`, the GI50 in the assay on RXF 393 renal was 11.9 µM; in the assay on KM12 colon it was 9.12 µM; in the assay on UO-31 renal, 5.2 µM; in the assay on OVCAR-4 ovarian it was 10.5 µM; in the assay on SK-MEL-2 melanoma it was 11.1 µM; with SK-OV-3 ovarian, 8.26 µM. Besides, the GI50 in the assay on A549 NSCLC was 9.38 µM; in the assay with NCI-H23 lung, 2.49 µM; with IGROV1 ovarian, 7.37 µM. In addition, the TGI is 23.6 µM with RXF 393 renal; 19.5 µM in the assay on KM12 colon; 11.4 µM with UO-31 renal; over 50 µM in the assay on OVCAR-4 ovarian; over 50 µM in the assay with SK-MEL-2 melanoma; 17.2 µM in the assay with SK-OV-3 ovarian. Also, the TGI came to 24.9 µM in the assay on A549 NSCLC, 9.11 µM in the assay on NCI-H23 lung and 29.1 µM in the assay on IGROV1 ovarian.
On to `Cc1ccc(C(=O)NC(C)C)cc1N=NN(C)C`, for which the TGI with KM12 colon, with UO-31 renal, in the assay with OVCAR-4 ovarian, in the assay with SK-MEL-2 melanoma, in the assay with A549 NSCLC and in the assay on NCI-H23 lung was over 100 µM each time. For the same compound, in the assay with IGROV1 ovarian, the TGI was over 100 µM.
As for `Cn1c(=O)c2[nH]cnc2n(CC(=O)O)c1=O`, the TGI in the assay on KM12 colon, in the assay with UO-31 renal, with SK-MEL-2 melanoma, with SK-OV-3 ovarian, in the assay with A549 NSCLC and in the assay on NCI-H23 lung was over 100 µM throughout. The TGI in the assay on IGROV1 ovarian and in the assay with A498 renal was over 100 µM throughout.
Turning to `COc1cc(C(=O)/C=C/c2c(-c3cccs3)nc3ccccn23)cc(OC)c1OC`, the GI50 was 1.32 µM with KM12 colon; 1.07 µM in the assay on UO-31 renal; 3.13 µM with OVCAR-4 ovarian; 2.27 µM in the assay on SK-MEL-2 melanoma; 3.01 µM in the assay on SK-OV-3 ovarian; 2.04 µM in the assay on A549 NSCLC. Moreover, the values for the GI50 in the assay on NCI-H23 lung, in the assay on IGROV1 ovarian and with A498 renal were 2.2 µM, 1.89 µM and 0.987 µM, respectively. Moreover, the TGI in the assay with KM12 colon amounted to 2.79 µM; in the assay on UO-31 renal, 3.17 µM; in the assay on OVCAR-4 ovarian, 21.6 µM; in the assay on SK-MEL-2 melanoma, 4.35 µM; in the assay on SK-OV-3 ovarian, 8.35 µM; with A549 NSCLC, 5.89 µM. Further, the TGI was 5.33 µM in the assay on NCI-H23 lung, 3.73 µM with IGROV1 ovarian and over 100 µM with A498 renal.
Turning to `O=C(O)C1=C(Cl)c2ccccc2S1(=O)=O`, the TGI with RXF 393 renal, in the assay on KM12 colon, in the assay on UO-31 renal, in the assay on OVCAR-4 ovarian, in the assay with SK-MEL-2 melanoma and with SK-OV-3 ovarian was over 100 µM throughout. Further, the TGI in the assay with A549 NSCLC, with NCI-H23 lung and in the assay with IGROV1 ovarian was over 100 µM in each case.
As for `CN(/C(=N\O)c1ccccc1)c1ccccc1`, the TGI in the assay on KM12 colon is over 100 µM; with UO-31 renal it was 69.3 µM; in the assay on OVCAR-4 ovarian it was over 100 µM; in the assay with SK-MEL-2 melanoma, 70.1 µM; in the assay with A549 NSCLC it was over 100 µM; in the assay on NCI-H23 lung, 61.2 µM.
Consider `COc1ccc2c(c1)Cc1c-2[nH]c2cc3c(cc2c1=O)OCO3`, for which the TGI is 19.5 µM in the assay on RXF 393 renal; 38.3 µM with KM12 colon; 89 µM with UO-31 renal; over 100 µM in the assay on OVCAR-4 ovarian; 21.8 µM with SK-MEL-2 melanoma; 95.8 µM in the assay with SK-OV-3 ovarian. In addition, the TGI in the assay on A549 NSCLC is over 100 µM; in the assay on NCI-H23 lung, 48.2 µM; in the assay on IGROV1 ovarian, 59.5 µM.
With `CCCCCC/C=C/CCCCCCCc1cccc(O)c1C(=O)O`, the TGI in the assay on KM12 colon is over 100 µM; in the assay on UO-31 renal, over 100 µM; with OVCAR-4 ovarian it was over 100 µM; in the assay with SK-MEL-2 melanoma, over 100 µM; with SK-OV-3 ovarian, 99.8 µM; in the assay with A549 NSCLC, over 100 µM. Further, the TGI with NCI-H23 lung and with IGROV1 ovarian was over 100 µM in each case.
As for `CC(C)[C@H](O)C(=O)N[C@H]1Cc2ccc3c(c2)[C@]24C5=C(N=C(O5)[C@H](C(C)C)NC1=O)c1nc(Cl)c(o1)-c1c(Cl)[nH]c5cccc(c15)-c1cccc2c1N[C@H]4O3`, the TGI in the assay with UO-31 renal is over 10 µM; in the assay on OVCAR-4 ovarian it was over 10 µM; with SK-OV-3 ovarian it was over 10 µM; in the assay on A549 NSCLC it was over 10 µM; in the assay with NCI-H23 lung, 3.82 µM; in the assay with IGROV1 ovarian, over 10 µM. In addition, the TGI in the assay on A498 renal was over 10 µM. For the same compound, the GI50 with A549 NSCLC, with NCI-H23 lung and with IGROV1 ovarian was under 0.001 µM throughout.
Regarding `Nc1n[n+]([O-])c2cnccc2[n+]1[O-]`, the TGI with KM12 colon, in the assay with UO-31 renal, in the assay on OVCAR-4 ovarian, in the assay with SK-MEL-2 melanoma, in the assay on SK-OV-3 ovarian and with A549 NSCLC was over 100 µM each time. Moreover, the TGI in the assay with NCI-H23 lung and with IGROV1 ovarian was over 100 µM each time.
Regarding `O=C(Cc1ccccc1)NN1C(=O)C(Cl)C1c1ccccc1` (stereo not given), the TGI with RXF 393 renal, in the assay on KM12 colon, in the assay with UO-31 renal, with OVCAR-4 ovarian, in the assay with SK-MEL-2 melanoma and in the assay with SK-OV-3 ovarian was over 100 µM throughout. In addition, the TGI in the assay on A549 NSCLC, in the assay with NCI-H23 lung and with IGROV1 ovarian was over 100 µM each time.
On to `CO[C@H]1/C=C/C[C@H](C)[C@@H](C)S(=O)(=O)NC(=O)c2ccc3c(c2)N(C[C@@H]2CC[C@H]21)C[C@@]1(CCCc2cc(Cl)ccc21)CO3`, for which the GI50 in the assay on KM12 colon was 3.17 µM; in the assay on UO-31 renal it was 3.19 µM; with OVCAR-4 ovarian, 2.46 µM; in the assay with SK-MEL-2 melanoma, 0.321 µM; in the assay with SK-OV-3 ovarian it was 3.5 µM; in the assay on A549 NSCLC, 3.29 µM. In addition, the GI50 was 1.58 µM in the assay on NCI-H23 lung, 3.08 µM in the assay with IGROV1 ovarian and 1.45 µM with A498 renal. In addition, the TGI is 11 µM in the assay with KM12 colon; 11.1 µM with UO-31 renal; 12.1 µM with OVCAR-4 ovarian; 1.43 µM with SK-MEL-2 melanoma; 12.6 µM in the assay with SK-OV-3 ovarian; 12.7 µM in the assay on A549 NSCLC. The values for the TGI with NCI-H23 lung, with IGROV1 ovarian and in the assay with A498 renal were 4.12 µM, 10.6 µM and 3.47 µM, respectively.
Regarding `CCOC(CN(C)C(=O)OCC(Cl)(Cl)Cl)OCC`, the TGI in the assay with RXF 393 renal, in the assay on KM12 colon, with UO-31 renal, with OVCAR-4 ovarian, in the assay on SK-OV-3 ovarian and in the assay on A549 NSCLC was over 100 µM in each case. Moreover, the TGI with NCI-H23 lung and with IGROV1 ovarian was over 100 µM in each case.
Consider `COC(=O)C1CCC(N2C(=O)CCC2C(=O)OC)=N1` (stereo not given), for which the TGI in the assay with KM12 colon, with UO-31 renal, with OVCAR-4 ovarian, with SK-MEL-2 melanoma, in the assay with SK-OV-3 ovarian and in the assay on A549 NSCLC was over 100 µM throughout. Besides, the TGI in the assay with NCI-H23 lung, with IGROV1 ovarian and with A498 renal was over 100 µM in each case.
